Reference: patent publication US10683278B2 (JINAN UNIVERSITY, priority 2015, dated 2020)

Columns and labels:
[1] = system: Molm-13 cells; assay: Inhibition of proliferation of Molm-13 cells (CCK-8); type: cell-based; conditions: Homo sapiens, 72 h, mean±standard deviation of two independent tests
Description: [Worded in the source for another cell line; this cell line is reported under the same test.] (§1) 12000 g of compounds were centrifuged for 5 min, DMSO was added to make a 10^−2M stock solution, vortexed uniformly and sonicated for 10 min for standby application, and stored at −40° C. The compounds were diluted from the stock solution with saline to 10 times the concentration to be tested (concentration of DMSO in the system being no more than 0.5%) during the test.
(§2) The inhibitory effect of the compounds on the proliferation of MV4-11 cells was detected using a CCK-8 cell counting kit (Dojindo). The specific steps are as follows: the MV4-11 cells in logarithmic growth phase were seeded into a 96-well culture plate at a suitable density in 90 μL/well, cultured overnight, compounds at different concentrations were then added and acted on cells for 72 hr, and the solvent control group (negative control) was set up. The effect of the compounds on cell proliferation was detected using a CCK-8 cell counting kit (Dojindo) after the compounds had acted on the cells for 72 h. 10 μL of CCK-8 reagent was added to each well, same was placed in an incubator at 37° C. for 2-4 hours, and the reading from the full-wavelength microwell plate ELIASA SpectraMax 190 was performed with a wavelength of 450 nm.
(§3) IC50 value was calculated using a software included with ELIASA by the four-parameter regression.
(§4) IC50 for the inhibition of the compounds on each stain of cells was derived from two independent repeated tests, and the results are shown as the mean±standard deviation.

[2] = target: T1, FLT-3 kinase domain recombinant protein (Homo sapiens, UniProt P36888); assay: Inhibition rate on FLT3 kinase (ELISA); type: biochemical; conditions: two values per compound; for inhibition at 0.01 µM / inhibition at 0.1 µM / inhibition at 1 µM: read-out: Inhibition rate (%) against receptor tyrosine kinase FLT-3
T1 construct: 50 μL FLT-3 kinase domain recombinant protein diluted with reaction buffer to initiate the reaction
T1 sequence (P36888 610-943 limits assumed): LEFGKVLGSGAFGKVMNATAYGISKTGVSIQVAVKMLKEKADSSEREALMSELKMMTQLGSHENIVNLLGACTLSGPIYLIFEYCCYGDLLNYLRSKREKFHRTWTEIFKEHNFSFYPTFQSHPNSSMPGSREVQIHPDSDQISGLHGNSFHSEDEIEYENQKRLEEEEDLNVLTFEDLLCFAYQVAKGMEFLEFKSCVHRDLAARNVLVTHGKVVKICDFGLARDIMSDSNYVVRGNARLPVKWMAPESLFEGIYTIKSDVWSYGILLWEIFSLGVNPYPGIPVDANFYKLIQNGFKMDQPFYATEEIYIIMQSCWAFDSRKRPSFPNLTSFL
Method in brief: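 Recombinant FLT-3 kinase domain phosphorylated coated Poly(Glu,Tyr) 4:1 with ATP in HEPES pH 7.4 buffer with MgCl2, MnCl2, Na3VO4, DTT, 1 h at 37 °C; 1% DMSO final. Phosphotyrosine detected with PY99 and HRP anti-mouse antibody, OPD development, absorbance at 490 nm.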

[3] = system: MV4-11 cells; assay: Inhibition of proliferation of MV4-11 cells (CCK-8); type: cell-based; conditions: Homo sapiens, 72 h, mean±standard deviation of two independent tests
Description: as §1, §2, §3, §4

Row | IC50 [1] | Inhibition rate (%) against receptor tyrosine kinase FLT-3 ([2]; compound 10 nM, 0.01 µM) | inhibition at 0.01 µM ([2]; compound 10 nM) | Inhibition rate (%) against receptor tyrosine kinase FLT-3 ([2]; compound 100 nM, 0.1 µM) | inhibition at 0.1 µM ([2]; compound 100 nM) | inhibition at 1 µM ([2]; compound 1000 nM) | IC50 [3] | Inhibition rate (%) against receptor tyrosine kinase FLT-3 ([2]; compound 1000 nM, 1 µM) | Structure (SMILES)
1 | 50.2 ± 9.9 nM | 71.7% | 59.1% | 79.5% | 75.4% | 87.9% | 57.3 ± 10.4 nM | – | CCc1ccc2c(c1)c(=O)c(C(=O)Nc1ccc(Oc3ncnc4cc(OCCN(C)C)c(OC)cc34)c(F)c1)c(C)n2C [GDL5000128, N-(4-(7-(2-(dimethylamino)ethoxy)-6-methoxyquinazolin-4-yloxy)-3-fluorophenyl)-6-ethyl-1,2-dimethyl-4-oxo-1,4-dihydroquinoline-3-carboxamide]
2 | 3.9 ± 2.9 nM | 66.4% | 67.7% | 83.0% | 81.5% | 98% | < 2 nM | 98.1% | CCc1ccc2c(c1)c(=O)c(C(=O)Nc1ccc(Oc3ncnc4cc(OCCCN5CCN(C)CC5)c(OC)cc34)c(F)c1)c(C)n2C [GDL5000138, 6-ethyl-N-(3-fluoro-4-(6-methoxy-7-(3-(4-methylpiperazin-1-yl)propoxy)quinazolin-4-yloxy)phenyl)-1,2-dimethyl-4-oxo-1,4-dihydroquinoline-3-carboxamide]
3 | 3.5 ± 3.2 nM | 74.8% | 75.4% | 83.8% | 89.3% | 104% | 51.7 ± 17.6 nM | 97.4% | CCc1ccc2c(c1)c(=O)c(C(=O)Nc1ccc(Oc3ncnc4cc(OCCCN5CCOCC5)c(OC)cc34)c(F)c1)c(C)n2C [GDL5000123, 6-ethyl-N-(3-fluoro-4-((6-methoxy-7-(3-morpholinopropoxy)quinazolin-4-yl)oxy)phenyl)-1,2-dimethyl-4-oxo-1,4-dihydroquinoline-3-carboxamide]

Continued, molecule first:

Row | Structure (SMILES) | IC50 [1] | Inhibition rate (%) against receptor tyrosine kinase FLT-3 ([2]; compound 10 nM, 0.01 µM) | inhibition at 0.01 µM ([2]; compound 10 nM) | Inhibition rate (%) against receptor tyrosine kinase FLT-3 ([2]; compound 100 nM, 0.1 µM) | inhibition at 0.1 µM ([2]; compound 100 nM) | inhibition at 1 µM ([2]; compound 1000 nM) | IC50 [3] | Inhibition rate (%) against receptor tyrosine kinase FLT-3 ([2]; compound 1000 nM, 1 µM)
4 | COc1cc2ncnc(Oc3ccc(NC(=O)c4cn5c6c(c(N7CCC(O)CC7)c(F)cc6c4=O)CCC5C)cc3F)c2cc1OC (stereo not drawn) [TL4830031, N-(4-((6,7-dimethoxyquinazolin-4-yl)oxy)-3-fluorophenyl)-9-fluoro-8-(4-hydroxypiperidin-1-yl)-5-methyl-1-oxo-1,5,6,7-tetrahydropyrido[3,2,1-ij]quinoline-2-carboxamide] | 239 ± 21.9 nM | 57.9% | 56.8% | 65.8% | 71.4% | 79.5% | > 500 nM | 76.4%
5 | CCc1ccc2c(c1)c(=O)c(C(=O)Nc1ccc(Oc3ncnc4[nH]cc(-c5ccccc5)c34)c(F)c1)c(C)n2C [TL4800075, 6-ethyl-N-(3-fluoro-4-((5-phenyl-7H-pyrrolo[2,3-d]pyrimidin-4-yl)oxy)phenyl)-1,2-dimethyl-4-oxo-1,4-dihydroquinoline-3-carboxamide] | – | 41.9% | 48.7% | 70.4% | 76.3% | 86.6% | – | 80.7%
6 | CCc1ccc2c(c1)c(=O)c(C(=O)Nc1ccc(Oc3ncnc4cc(OC)c(OC)cc34)c(F)c1)c(C)n2C [TL4800191, N-(4-(6,7-dimethoxyquinazolin-4-yloxy)-3-fluorophenyl)-6-ethyl-1,2-dimethyl-4-oxo-1,4-dihydroquinoline-3-carboxamide] | 102 ± 10.9 nM | 67.0% | 70.7% | 77.1% | 86.4% | 84.7% | 194 ± 104 nM | 83.2%
